“And” between values parts separate entries of the source, which are not always exact repeats. Identical values can stand only once. Like-named read-outs stand apart in the source and are kept apart here.
What was measured:
[1] = 8-h oral plasma pharmacokinetics and tissue distribution, female wild-type, Cyp3a−/− and Cyp3aXAV mice; assay type: in vivo; conditions: 10 mg/kg oral; for Tmax: median (range); for Tmax / SIC (% of dose) / Fold change AUC0–8h / Fold change SIC (% of dose) / Fold increase Cbrain / Fold increase Cliver / Fold increase ratio (brain-to-plasma) / Fold increase ratio (liver-to-plasma) / Kp at 8 h / concentration at 8 h / half-life / Cmax / AUC(0-t): 8 h; for Fold change AUC0–8h / Fold change SIC (% of dose) / Fold increase Cbrain / Fold increase Cliver / Fold increase ratio (brain-to-plasma) / Fold increase ratio (liver-to-plasma): vs wild-type; for Kp at 8 h / concentration at 8 h / half-life / Cmax / AUC(0-t): female, po; for half-life: elimination half-life; for AUC(0-t): read-out: AUC0–8h
Excerpt: (§1) Mice with similar average ages (and body weights) were randomly allocated in experimental groups as far as possible. Mice were maintained in a temperature-controlled and specific pathogen-free environment with a 12-h light and 12-h dark cycle and they received a standard diet (Transbreed, SDS Diets, Technilab-BMI, Someren, The Netherlands) and acidified water ad libitum. […] Given the objective main readout (repotrectinib plasma and tissue concentrations as measured by LC-MS/MS), no blinding method was applied.
(§2) Repotrectinib was dissolved in dimethyl sulfoxide (DMSO) at a concentration of 50 mg/mL. This stock solution was first diluted 3-fold with ethanol/polysorbate 80 (1/1; v/v), followed by further dilution with a 10 mM hydrochloric acid solution, yielding a dosing solution of 1 mg/mL, freshly prepared on the day of experiment. Final concentrations of the solvents in the administration solution were: 2%, 2%, 2%, and 94% (all v/v) for DMSO, ethanol, polysorbate 80, and 10 mM hydrochloric acid solution, respectively.
(§3) To minimize variation in absorption upon oral administration, mice were fasted for 2–3 h before repotrectinib (10 mg/kg body weight) was administered by gavage into the stomach at 10 µL/g body weight, with a blunt-ended needle. Tail vein serial blood samples were collected at 0.125, 0.25, 0.5, 1, 2 and 4 h using heparinized capillary tubes (Sarstedt, Nümbrecht, Germany) for the 8-h experiments. For the 4- and 2-h experiments, blood samplings were performed from the tail vein with the same schedule, but terminated at 2 and 1 h, respectively. Eight, four, or two hours after oral administration, mice were deeply anesthetized with 2–3% isoflurane, followed by cardiac puncture to collect blood in Eppendorf tubes containing heparin as an anticoagulant. Brain, liver, spleen, kidney, lung, small intestine, and testis were rapidly collected after sacrificing the mice by cervical dislocation. The small intestinal contents (SIC) were separated from small intestinal tissue (SI), which was flushed and rinsed with cold saline to remove any residual feces. Brain, liver, spleen, kidney, lung, SI, SIC, and testis were homogenized with 1, 3, 1, 2, 1, 3, 2, and 1 mL of 2% BSA (w/v), respectively. Plasma fraction was isolated from blood by centrifugation at 9000× g for 6 min at 4 °C. All samples were stored at −30 °C until analysis.
(§4) A sensitive and specific liquid chromatography-tandem mass spectrometry method using protein precipitation pre-treatment was adopted to quantify the concentration of repotrectinib in DMEM medium, plasma samples and tissue homogenates.
(§5) A non-compartmental model using the PKSolver add-in program for Microsoft Excel was adopted to calculate the pharmacokinetic parameters of repotrectinib. Oral availability was assessed by the plasma area under the curve (AUC), calculated using repotrectinib plasma concentration-time curves with the linear trapezoidal rule without extrapolating the infinity. Statistical testing was performed in Graphpad Prism7 (Graphpad Software, La Jolla, CA, USA). All data are presented as geometric means ± SD. Heteroscedastic data were log-transformed before applying statistical analysis. When differences between two groups were compared, the two-sided unpaired Student’s t test was used. One-way analysis of variance (ANOVA) was applied when multiple groups were compared, and the Bonferroni post hoc correction was used to accommodate multiple testing. Differences were considered statistically significant when P < 0.05.

[2] = 8-h pilot oral plasma pharmacokinetics and tissue distribution, female wild-type, Abcb1a/1b;Abcg2−/− and Oatp1a/1b−/− mice; assay type: in vivo; conditions: >99% FVB background, mouse, plasma; female wild-type and Abcb1a/1b;Abcg2−/− mice, 10 mg/kg oral, 8-h pilot; read-out: time of peak plasma concentrations after dosing (converted)
Excerpt: as §1, §2, §3, §4, §5

[3] = FVB, mouse, plasma, 10 mg/kg, female Cyp3aXAV mice
[4] = FVB, mouse, plasma, 10 mg/kg, female Cyp3a−/− mice
[5] = FVB, mouse, plasma, 10 mg/kg, female wild-type mice

SMILES: C[C@H]1CNC(=O)c2cnn3ccc(nc23)N[C@H](C)c2cc(F)ccc2O1 [repotrectinib]
- Tmax ([1]; FVB, mouse, plasma, female wild-type mice, read-out: Tmax): 0.5 h
- plasma AUC0–8h, fold decrease ([1]; female Cyp3aXAV mice compared to Cyp3a−/− mice): 2.0 fold
- SIC (% of dose) ([1]; female Cyp3aXAV mice): 1.68 ± 0.63 % of dose
- Fold change AUC0–8h ([1]; female Cyp3aXAV mice): 1.16
- Fold change SIC (% of dose) ([1]; female Cyp3aXAV mice): 0.81
- Fold increase Cbrain ([1]; female Cyp3aXAV mice): 1.57
- Fold increase Cliver ([1]; female Cyp3aXAV mice): 1.13
- Fold increase ratio (brain-to-plasma) ([1]; female Cyp3aXAV mice): 1.54
- Fold increase ratio (liver-to-plasma) ([1]; female Cyp3aXAV mice): 1.32
- SIC (% of dose) ([1]; female Cyp3a−/− mice): 5.11 ± 2.83 % of dose
- Fold change SIC (% of dose) ([1]; female Cyp3a−/− mice): 2.46
- Fold increase Cbrain ([1]; female Cyp3a−/− mice): 4.16
- Fold increase Cliver ([1]; female Cyp3a−/− mice): 4.11
- Fold increase ratio (brain-to-plasma) ([1]; female Cyp3a−/− mice): 0.85
- Fold increase ratio (liver-to-plasma) ([1]; female Cyp3a−/− mice): 0.90
- Fold change AUC0–8h ([1]; female Cyp3a−/− mice, 10 mg/kg): 2.3 and 2.31
- SIC (% of dose) ([1]; female wild-type mice): 2.08 ± 1.35 % of dose
- Fold change AUC0–8h ([1]; female wild-type mice): 1.00
- Fold change SIC (% of dose) ([1]; female wild-type mice): 1.00
- Fold increase Cbrain ([1]; female wild-type mice): 1.00
- Fold increase Cliver ([1]; female wild-type mice): 1.00
- Fold increase ratio (brain-to-plasma) ([1]; female wild-type mice): 1.00
- Fold increase ratio (liver-to-plasma) ([1]; female wild-type mice): 1.00
- Kp at 8 h ([1]; Cyp3aXAV (>99% FVB background), mouse, brain/plasma, 10 mg/kg, female Cyp3aXAV mice, read-out: Brain-to-plasma ratio): 0.4 ± 0.09
- concentration at 8 h ([1]; Cyp3aXAV (>99% FVB background), mouse, liver, 10 mg/kg, female Cyp3aXAV mice, read-out: Cliver): 1380 ± 440 ng/mL
- Kp at 8 h ([1]; Cyp3a−/− (>99% FVB background), mouse, brain/plasma, 10 mg/kg, female Cyp3a−/− mice, read-out: Brain-to-plasma ratio): 0.22 ± 0.08
- concentration at 8 h ([1]; Cyp3a−/− (>99% FVB background), mouse, liver, 10 mg/kg, female Cyp3a−/− mice, read-out: Cliver): 5020 ± 1920 ng/mL
- concentration at 8 h ([1]; FVB, mouse, brain, 10 mg/kg, female Cyp3aXAV mice, read-out: Cbrain): 80.2 ± 35.3 ng/g
- concentration at 8 h ([1]; FVB, mouse, brain, 10 mg/kg, female Cyp3a−/− mice, read-out: Cbrain): 213 ± 53.7 ng/g
- concentration at 8 h ([1]; FVB, mouse, brain, 10 mg/kg, female wild-type mice, read-out: Cbrain): 51.2 ± 17.8 ng/g
- Kp at 8 h ([1]; FVB, mouse, liver, 10 mg/kg, female Cyp3aXAV mice, read-out: Liver-to-plasma ratio): 7.1 ± 2.11
- Kp at 8 h ([1]; FVB, mouse, liver, 10 mg/kg, female Cyp3a−/− mice, read-out: Liver-to-plasma ratio): 4.81 ± 0.76
- Kp at 8 h ([1]; FVB, mouse, liver, 10 mg/kg, female wild-type mice, read-out: Liver-to-plasma ratio): 5.36 ± 0.54
- half-life [1, 3]: 1.6 ± 0.2 h
- half-life [1, 4]: 2.5 ± 0.9 h
- half-life [1, 5]: 1.6 ± 0.4 h
- Cmax [1, 3]: 5560 ± 610 ng/mL
- AUC(0-t) [1, 3]: 18900 ± 3650 ng·h/mL
- Cmax [1, 4]: 8280 ± 930 ng/mL
- AUC(0-t) [1, 4]: 37600 ± 2830 ng·h/mL
- Cmax [1, 5]: 4800 ± 1780 ng/mL
- AUC(0-t) [1, 5]: 16300 ± 6350 ng·h/mL
- Kp at 8 h ([1]; wild-type (>99% FVB background), mouse, brain/plasma, 10 mg/kg, female wild-type mice, read-out: Brain-to-plasma ratio): 0.26 ± 0.12
- concentration at 8 h ([1]; wild-type (>99% FVB background), mouse, liver, 10 mg/kg, female wild-type mice, read-out: Cliver): 1220 ± 650 ng/mL
- Tmax ([1]; female Cyp3aXAV mice): 0.5 (0.25–0.5) h
- Tmax ([1]; female Cyp3a−/− mice): 0.5 (0.125–0.5) h
- Tmax [2]: 0.5 h

— article PMC8619046, “ABCB1 and ABCG2 Control Brain Accumulation and Intestinal Disposition of the Novel ROS1/TRK/ALK Inhibitor Repotrectinib, While OATP1A/1B, ABCG2, and CYP3A Limit Its Oral Availability” (Pharmaceutics, 2021)
